# According to patent publication US10124004B2, “Pyrido[3,4-d]pyrimidine derivative and pharmaceutically acceptable salt thereof” (Teijin Pharma Limited, priority 2015, dated 2018):
# Target: T1, CDK4/cyclin D3 (Homo sapiens, UniProt P11802)
# T1 construct: purchased Carna Biosciences, Inc. QS S Assist CDK4/Cyclin D3_FP Kit
# Assay: Human CDK4/cyclin D3 inhibitory activity (QS S Assist CDK4/Cyclin D3_FP Kit, IMAP fluorescence polarization)
# Format: biochemical
# Conditions: 50% inhibitory concentration against CDK4/cyclin D3, given as class symbol
# Method: Human CDK4/Cyclin D3 Inhibitory Activity
# Each compound was analyzed for CDK4/cyclin D3 inhibitory activity with an assay kit (QS S Assist CDK4/Cyclin D3_FP Kit, available from Carna Biosciences, Inc.). This assay kit determines kinase activity on the basis of the IMAP technology by Molecular Devices. Specifically, the kinase activity is determined through quantification of a variation in fluorescent polarization caused by binding of a kinase-phosphorylated fluorescent substance to an IMAP-binding reagent.
# Each solution was prepared with the 10× assay buffer attached to the kit or a separately prepared assay buffer having the same composition as the assay buffer attached to the kit. An assay buffer was prepared by 10-fold dilution of the 10× assay buffer with distilled water. The assay buffer contains 20 mM HEPES (pH 7.4), 0.01% Tween20, and 2 mM dithiothreitol. A test compound solution was prepared by dilution of the test compound with dimethyl sulfoxide (DMSO) to a concentration 100 times higher than the final concentration and then 25-fold dilution with the assay buffer to a concentration four times higher than the final concentration. An ATP/substrate/Metal solution was prepared by five-fold dilution of the 5×ATP/substrate/Metal solution attached to the kit with the assay buffer. An enzyme solution was prepared by dilution of the CDK4/cyclin D3 attached to the kit with the assay buffer to a concentration twice higher than the final concentration (final concentration of CDK4/cyclin D3:12.5 to 25 ng/well). A detection reagent was prepared by five-fold dilution of each of 5× IMAP-binding buffer A and 5×IMAP-binding buffer B with distilled water, mixing of IMAP-binding buffer A with IMAP-binding buffer B at a ratio of 85:15, and 400-fold dilution of the IMAP-binding reagent with the mixed buffer.
# The test compound solution (5 μL/well) and the ATP/substrate/Metal solution (5 μL/well) were added to a 384-well plate, and the enzyme solution or the assay buffer (10 μL/well) was added to the plate (total amount of the reaction mixture: 20 μL/well) for initiation of enzymatic reaction. […] The reaction was performed at room temperature for 45 minutes, and the detection reagent (60 μL/well) was then added to the plate, followed by further reaction for 30 minutes at room temperature under light shielding conditions. Subsequently, fluorescent polarization was determined with a microplate reader at an excitation wavelength of 485 nm and an emission wavelength of 535 nm.
# The percent inhibition of enzyme activity was calculated for each test compound (note: enzyme activity=100% in the case of addition of the enzyme solution and addition of DMSO instead of the test compound solution, whereas enzyme activity=0% in the case of addition of the assay buffer instead of the enzyme solution, and addition of DMSO instead of the test compound solution). The percent inhibition of enzyme activity was fitted to a dose-response curve, to determine a 50% inhibitory concentration against CDK4/cyclin D3.
# In each table, “+++” corresponds to IC50<10 nM, “++” 10 nM≤IC50<100 nM, and “+” 100 nM≤IC50.
# T1 sequence (P11802 whole entry): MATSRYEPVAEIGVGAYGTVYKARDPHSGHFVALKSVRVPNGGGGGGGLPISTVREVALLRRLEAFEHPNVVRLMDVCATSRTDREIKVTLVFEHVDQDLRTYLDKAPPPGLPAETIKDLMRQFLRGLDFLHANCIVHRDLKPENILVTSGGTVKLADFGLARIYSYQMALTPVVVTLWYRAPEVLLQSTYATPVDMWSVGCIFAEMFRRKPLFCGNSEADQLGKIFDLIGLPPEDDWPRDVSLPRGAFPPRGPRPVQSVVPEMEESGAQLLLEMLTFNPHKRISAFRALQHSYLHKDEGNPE
# T1 sequence (P30281 whole entry partner): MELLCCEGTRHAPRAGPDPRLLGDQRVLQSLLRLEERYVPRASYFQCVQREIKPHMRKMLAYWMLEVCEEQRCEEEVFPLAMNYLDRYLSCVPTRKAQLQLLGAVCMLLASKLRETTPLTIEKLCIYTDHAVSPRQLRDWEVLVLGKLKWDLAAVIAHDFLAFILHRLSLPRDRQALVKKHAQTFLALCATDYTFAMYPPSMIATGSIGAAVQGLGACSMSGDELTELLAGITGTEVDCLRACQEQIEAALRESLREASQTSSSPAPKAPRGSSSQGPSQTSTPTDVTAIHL
row,SMILES,IC50 [nM]
1,"CC(C)Nc1nc(C(C)O)cc2cnc(Nc3ccc(N4CCC(O)C(C)C4)nn3)nc12 (single isomer, unassigned) [Compound 704]",< 10
2,CO[C@H](C)c1cc2cnc(Nc3ccc(CN4CCN(CCCC(=O)O)CC4)cn3)nc2c(NC(C)C)n1 [Compound 697],10 to 100

# Same assay, conditions: Human CDK4/cyclin D3 inhibitory activity; read-out: CDK4 Activity symbol
row,SMILES,IC50 [nM]
1,CC1(C)NCCN(c2ccc(Nc3ncc4cc(C(F)F)nc(N[C@H]5CC[C@H](C(=O)O)CC5)c4n3)nc2)C1=O [Compound 442],≥ 100
2,CC(C)Nc1nc([C@@H](C)O)cc2cnc(Nc3ccc(N4CCN[C@H](C)C4=O)cn3)nc12 [Compound 506],10 to 100
3,CC(C)Nc1nc([C@@H](C)O)cc2cnc(Nc3ccc(O[C@H]4CNCC[C@@H]4F)nn3)nc12 [Compound 547],< 10
4,COC(C)c1cc2cnc(Nc3ccc(CN4CCNCC4)cn3)nc2c(NCC2CCCC(O)C2)n1 (centres unmarked) [Compound 402],< 10
5,COC(C)c1cc2cnc(Nc3ccc(CN4CCNCC4)cn3)nc2c(NCC(C)(C)C)n1 (centres unmarked) [Compound 418],< 10
6,COC(C)c1cc2cnc(Nc3ccc(CN4CCNCC4)cn3)nc2c(NCCN2CCCC2=O)n1 (centres unmarked) [Compound 414],10 to 100
7,CO[C@H](C)c1cc2cnc(Nc3ccc(N4CC5(CC(N)C5)C4)cn3)nc2c(NC(C)C)n1 [Compound 484],< 10
8,COC(C)c1cc2cnc(Nc3ccc(CN4CCNCC4)cn3)nc2c(Nc2ccc(F)cc2)n1 (centres unmarked) [Compound 446],10 to 100
9,CNCCCOc1ccc(Nc2ncc3cc([C@@H](C)O)nc(NC(C)C)c3n2)nn1 [Compound 530],< 10
10,CC1(C)NCCN(c2ccc(Nc3ncc4cc(C(F)F)nc(N[C@H]5CC[C@H](O)CC5)c4n3)nc2)C1=O [Compound 443],10 to 100
11,CC(C)Nc1nc([C@@H](C)O)cc2cnc(Nc3ccc(N(C)C(=O)CN)cn3)nc12 [Compound 538],< 10
12,CC(C)Nc1nc([C@@H](C)O)cc2cnc(Nc3ccc(CN4CCNC(C)(C)C4)cn3)nc12 [Compound 536],< 10
13,CO[C@H](C)c1cc2cnc(Nc3ccc(N4CCC(N(C)C)CC4)nn3)nc2c(NC(C)C)n1 [Compound 489],< 10
14,CC(C)Nc1nc([C@@H](C)O)cc2cnc(Nc3ccc(N4CCC(O)C(F)(F)C4)nn3)nc12 (some centres unmarked) [Compound 617],< 10
15,COC(C)c1cc2cnc(Nc3ccc(CN4CCNCC4)cn3)nc2c(NCC2CC(F)(F)C2)n1 (centres unmarked) [Compound 465],< 10
16,COC(C)c1cc2cnc(Nc3ccc(CN4CCNCC4)cn3)nc2c(NC23CCC(C(=O)O)(CC2)CC3)n1 (centres unmarked) [Compound 475],10 to 100
17,CC(C)Nc1nc([C@@H](C)O)cc2cnc(Nc3ccc(OC4CCCNC4)nn3)nc12 (some centres unmarked) [Compound 541],< 10
18,CO[C@H](C)c1cc2cnc(Nc3ccc(N4CCNC(C)(C)C4=O)cn3)nc2c(NC(C)C)n1 [Compound 444],≥ 100
19,COC(C)c1cc2cnc(Nc3ccc(CN4CCNCC4)cn3)nc2c(NC(C)C2CCOC2)n1 (centres unmarked) [Compound 404],< 10
20,CNCCOc1ccc(Nc2ncc3cc([C@@H](C)OC)nc(NC(C)C)c3n2)nn1 [Compound 551],10 to 100
21,CO[C@H](C)c1cc2cnc(Nc3ccc(CN4CCNC(C)(C)C4)cn3)nc2c(NC(C)C)n1 [Compound 534],< 10
22,CC(C)Nc1nc([C@@H](C)O)cc2cnc(Nc3ccc(N4CC5(CNC(=O)C5)C4)nn3)nc12 [Compound 620],< 10
23,COC(C)c1cc2cnc(Nc3ccc(CN4CCNCC4)cn3)nc2c(NC2(CO)CCOCC2)n1 (centres unmarked) [Compound 433],10 to 100
24,CO[C@H](C)c1cc2cnc(Nc3ccc(N4CC5(CCNC5)C4)cn3)nc2c(NC(C)C)n1 [Compound 479],< 10
25,COc1ccc(Nc2nc(C(C)OC)cc3cnc(Nc4ccc(CN5CCNCC5)cn4)nc23)cc1 (centres unmarked) [Compound 450],< 10
26,COC(C)c1cc2cnc(Nc3ccc(CN4CCNCC4)cn3)nc2c(NC2CCNC(=O)C2)n1 (centres unmarked) [Compound 422],10 to 100
27,CC(C)Nc1nc(C(F)F)cc2cnc(Nc3ccc(N4CCNC(C)(C)C4=O)cn3)nc12 [Compound 438],< 10
